Data as given in ChEMBL document CHEMBL1201862, “PubChem BioAssay data set” (2004).
Active and inactive are the calls of the source.

Columns and labels:
[1] = cells; type: functional, cell-based; details: HEK-CNG
[2] = target: Galanin receptor type 3 (Homo sapiens, UniProt O60755); assay: Fluorescence-based cell-based primary high throughput dose response assay to identify antagonists of the Galanin Receptor 3 (GalR3).; type: functional
[3] = target: Botulinum neurotoxin type F (Clostridium botulinum, UniProt P30996); assay: High-throughput multiplex microsphere dose response for inhibitors of toxin protease, specifically Botulinum neurotoxin light chain F protease, compounds from Cherry Pick 02.; type: functional; details: read-out: EC50_MICROM
[4] = inhibitors of EBV LMP1 NF-kappaB signaling – cell-based, luciferase reporter, luminescence, dry powder, set 2, dose response (AID 624376); type: functional
[5] = LMP1-induced NF-kB luciferase signal inhibition – cell-based, EBV LMP1, dry powder, set 2, dose response (AID 624361); type: functional
[6] = activation of miR-122 Renilla sensor silencing – cell-based, Huh7 psiCHECK-miR122, Renilla luciferase, cherry-picked, dose response (AID 651956); type: functional;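 note: huh7 hepatoma cells stably carrying a psiCHECK-2 miR-122 sensor plasmid; renilla luciferase signal reporting endogenous miR-122 activity after 48 h compound exposure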
[7] = target: T1, Scavenger receptor class B member 1 (Mus musculus, UniProt Q61009); assay: mouse SR-BI DiI-HDL transfer blockers – ldlA[mSR-BI] CHO cells, fluorescence plate reader, dry powder, set 9, dose response (AID 623880); type: functional, cell-based
[8] = target: T1, Scavenger receptor class B member 1; assay: blockers of DiI-HDL lipid transfer via SR-BI – cell-based, ldlA[mSR-BI] CHO, DiI fluorescence, dry powder, set 10, dose response (AID 624029); type: functional
[9] = target: T2, Replicative DNA helicase DnaB (Mycobacterium tuberculosis, UniProt P9WMR3); assay: DnaB intein splicing inhibitors, dose response, biochemical, cell-free fluorescence (AID 449749); type: functional
T2 sequence (P9WMR3 whole entry): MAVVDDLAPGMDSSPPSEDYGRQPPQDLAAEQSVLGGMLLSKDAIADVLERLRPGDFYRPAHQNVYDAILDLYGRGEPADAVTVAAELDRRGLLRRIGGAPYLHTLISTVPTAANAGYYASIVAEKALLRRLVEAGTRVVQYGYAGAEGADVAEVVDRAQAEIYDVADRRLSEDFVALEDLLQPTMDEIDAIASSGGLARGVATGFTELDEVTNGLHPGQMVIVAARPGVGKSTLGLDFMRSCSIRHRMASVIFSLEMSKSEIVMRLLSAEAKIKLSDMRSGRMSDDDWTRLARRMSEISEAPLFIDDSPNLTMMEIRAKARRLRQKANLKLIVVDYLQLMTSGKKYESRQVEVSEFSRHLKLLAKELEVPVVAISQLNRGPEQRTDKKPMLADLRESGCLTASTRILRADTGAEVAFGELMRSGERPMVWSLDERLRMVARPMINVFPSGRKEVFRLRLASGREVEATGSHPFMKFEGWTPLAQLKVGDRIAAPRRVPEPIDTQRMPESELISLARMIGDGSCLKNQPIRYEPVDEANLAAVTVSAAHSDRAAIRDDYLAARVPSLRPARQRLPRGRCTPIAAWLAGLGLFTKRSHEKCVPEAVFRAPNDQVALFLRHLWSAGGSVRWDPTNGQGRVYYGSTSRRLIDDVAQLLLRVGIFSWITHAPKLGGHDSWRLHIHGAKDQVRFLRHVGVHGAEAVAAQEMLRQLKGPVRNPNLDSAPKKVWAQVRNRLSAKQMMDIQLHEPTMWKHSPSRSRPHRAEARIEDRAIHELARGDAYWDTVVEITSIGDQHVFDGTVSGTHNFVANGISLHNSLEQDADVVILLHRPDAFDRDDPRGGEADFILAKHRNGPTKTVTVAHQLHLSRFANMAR

[10] = target: T3, Small ubiquitin-related modifier 1 (Homo sapiens, UniProt P63165); assay: SUMO1 protein interaction blockers, potency – biochemical, fluorescence polarization, uHTS hits, dose response (AID 624382); type: functional; details: read-out: IC50_Mean
[11] = target: T3, Small ubiquitin-related modifier 1; assay: SUMO1 protein-protein binding blockers, potency – biochemical, FRET, dose response (AID 624383); type: functional; details: read-out: IC50_Mean
[12] = target: T4, Small ubiquitin-related modifier 2 (Homo sapiens, UniProt P61956); assay: SUMO2 binding disruption by SUMO1 hits – biochemical, FRET, human SUMO2, uHTS hits, selectivity assay for SUMO1 interaction inhibitor project, dose response (AID 624384); type: functional; details: read-out: IC50_Mean
[13] = target: Induced myeloid leukemia cell differentiation protein Mcl-1 (Homo sapiens, UniProt Q07820); type: functional
[14] = target: T5, Protein RecA (Mycobacterium tuberculosis, UniProt P9WHJ3); assay: Fluorescence Cell-Free Homogeneous Dose Retest to Identify Inhibitors of RecA-Intein Splicing Activity. [Related pubchem assays (depositor defined):AID2097, AID2223, AID489010, AID492950]; type: functional
T5 sequence (P9WHJ3 whole entry): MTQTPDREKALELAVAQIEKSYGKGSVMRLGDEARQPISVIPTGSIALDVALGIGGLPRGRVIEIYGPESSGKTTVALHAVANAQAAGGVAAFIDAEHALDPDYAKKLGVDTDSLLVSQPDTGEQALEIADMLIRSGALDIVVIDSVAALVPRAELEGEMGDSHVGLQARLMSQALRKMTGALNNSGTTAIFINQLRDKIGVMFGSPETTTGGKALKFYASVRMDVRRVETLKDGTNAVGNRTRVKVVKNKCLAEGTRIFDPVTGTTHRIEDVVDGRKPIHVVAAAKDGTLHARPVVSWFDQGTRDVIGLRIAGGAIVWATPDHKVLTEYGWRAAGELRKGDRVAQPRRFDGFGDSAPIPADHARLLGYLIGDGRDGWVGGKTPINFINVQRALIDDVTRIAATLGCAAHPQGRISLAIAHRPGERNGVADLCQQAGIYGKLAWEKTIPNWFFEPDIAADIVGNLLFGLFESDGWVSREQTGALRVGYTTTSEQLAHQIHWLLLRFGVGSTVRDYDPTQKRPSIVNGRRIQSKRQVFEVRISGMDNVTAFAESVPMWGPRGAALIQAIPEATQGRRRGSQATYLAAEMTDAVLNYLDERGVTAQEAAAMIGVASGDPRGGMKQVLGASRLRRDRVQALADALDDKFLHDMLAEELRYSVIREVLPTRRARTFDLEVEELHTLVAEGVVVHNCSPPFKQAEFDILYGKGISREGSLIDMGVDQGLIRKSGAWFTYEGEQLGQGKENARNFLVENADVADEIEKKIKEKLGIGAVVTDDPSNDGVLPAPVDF

[15] = target: T4, Small ubiquitin-related modifier 2; assay: disruption of SUMO2 interaction with SIM peptide – biochemical, fluorescence polarization, uHTS hits, selectivity assay for SUMO1 interaction inhibitor project, dose response (AID 624385); type: functional; details: read-out: IC50_Mean

T4 sequence (P61956 whole entry): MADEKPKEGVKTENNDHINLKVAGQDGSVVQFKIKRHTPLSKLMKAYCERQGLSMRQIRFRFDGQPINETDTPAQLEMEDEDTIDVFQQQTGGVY
T3 sequence (P63165 whole entry): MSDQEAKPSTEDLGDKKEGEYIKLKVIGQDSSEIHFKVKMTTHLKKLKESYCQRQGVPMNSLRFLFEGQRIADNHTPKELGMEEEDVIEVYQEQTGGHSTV
T1 sequence (Q61009 whole entry): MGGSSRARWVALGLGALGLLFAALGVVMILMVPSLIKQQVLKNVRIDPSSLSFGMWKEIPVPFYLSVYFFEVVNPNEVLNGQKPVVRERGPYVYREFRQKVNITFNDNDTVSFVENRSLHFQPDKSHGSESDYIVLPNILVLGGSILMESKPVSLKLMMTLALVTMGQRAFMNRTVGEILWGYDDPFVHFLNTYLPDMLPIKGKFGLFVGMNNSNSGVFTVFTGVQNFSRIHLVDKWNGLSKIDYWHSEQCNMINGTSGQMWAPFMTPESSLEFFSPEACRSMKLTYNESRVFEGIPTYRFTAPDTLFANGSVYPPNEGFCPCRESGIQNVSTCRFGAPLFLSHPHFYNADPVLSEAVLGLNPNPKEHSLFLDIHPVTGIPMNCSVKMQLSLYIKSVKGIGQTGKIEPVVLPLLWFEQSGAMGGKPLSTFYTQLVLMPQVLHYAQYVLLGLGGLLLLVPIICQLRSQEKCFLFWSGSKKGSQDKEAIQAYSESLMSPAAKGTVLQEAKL
Sequence of Galanin receptor type 3 (O60755 whole entry): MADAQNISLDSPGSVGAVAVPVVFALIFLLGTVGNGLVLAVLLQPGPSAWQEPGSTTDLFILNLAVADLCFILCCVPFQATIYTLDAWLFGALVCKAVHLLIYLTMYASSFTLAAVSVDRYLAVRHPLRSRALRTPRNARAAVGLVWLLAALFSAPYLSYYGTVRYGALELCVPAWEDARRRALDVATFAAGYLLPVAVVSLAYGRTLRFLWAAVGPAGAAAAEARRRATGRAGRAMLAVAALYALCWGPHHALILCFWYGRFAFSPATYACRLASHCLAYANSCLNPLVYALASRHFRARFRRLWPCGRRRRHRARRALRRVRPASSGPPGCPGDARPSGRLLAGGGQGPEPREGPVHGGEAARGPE
Sequence of Botulinum neurotoxin type F (P30996 1-436 limits assumed): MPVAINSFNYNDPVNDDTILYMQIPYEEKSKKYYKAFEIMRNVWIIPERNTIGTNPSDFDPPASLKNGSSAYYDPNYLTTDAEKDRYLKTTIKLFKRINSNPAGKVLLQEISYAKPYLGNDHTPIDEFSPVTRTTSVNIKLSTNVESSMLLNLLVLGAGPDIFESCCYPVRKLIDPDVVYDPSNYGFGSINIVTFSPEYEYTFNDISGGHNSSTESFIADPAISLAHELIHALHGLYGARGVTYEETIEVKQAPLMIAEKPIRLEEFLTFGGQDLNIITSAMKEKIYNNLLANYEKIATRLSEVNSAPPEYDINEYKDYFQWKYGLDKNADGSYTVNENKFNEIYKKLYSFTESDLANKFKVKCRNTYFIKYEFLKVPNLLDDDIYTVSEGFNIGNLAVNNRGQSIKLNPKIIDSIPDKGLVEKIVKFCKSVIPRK
Sequence of Induced myeloid leukemia cell differentiation protein Mcl-1 (Q07820 whole entry): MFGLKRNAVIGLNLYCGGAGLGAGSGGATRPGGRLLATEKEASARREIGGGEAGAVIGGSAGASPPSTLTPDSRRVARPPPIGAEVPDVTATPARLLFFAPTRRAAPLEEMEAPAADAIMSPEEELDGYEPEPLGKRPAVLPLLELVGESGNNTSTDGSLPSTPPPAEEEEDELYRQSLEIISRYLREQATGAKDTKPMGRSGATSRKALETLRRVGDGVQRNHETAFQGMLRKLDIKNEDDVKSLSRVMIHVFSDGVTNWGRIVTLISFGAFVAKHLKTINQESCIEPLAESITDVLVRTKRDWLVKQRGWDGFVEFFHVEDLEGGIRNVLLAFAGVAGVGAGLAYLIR

## Cc1onc(-c2ccccc2Cl)c1C(=O)NNC(=O)c1cccc(F)c1
[1]
  EC50: > 29.9 µM (inactive)
[2]
  IC50: > 29.9 µM (inactive)

## COc1ccccc1Cc1c(-c2ccc(F)cc2)nc2cc(C)c(Br)c(C)n12
[3]
  EC50: > 20 µM (inactive)

## COc1ccccc1C#Cc1cnc2c(c1)C(=O)N([C@H](C)CO)C[C@H](C)[C@@H](CN(C)C(=O)c1ccc3c(c1)OCO3)O2
[4]
  AbsAC35: 52.21 µM
[5]
  AbsAC35: 41.32 µM
[6]
  AC50: 13.6 µM (active)

## Cc1noc(C)c1S(=O)(=O)Nc1ccc2c(c1)C(=O)N([C@H](C)CO)C[C@@H](C)[C@H](CN(C)S(=O)(=O)c1ccc(Cl)cc1)O2
[7]
  AC50: 0.158 µM (active)
[8]
  AC50: 0.123 µM (active)

## NC1=C2C(=O)c3ccccc3C(=O)C2=C(N)CC1
[9]
  AC50: 11.3 µM (active)
[10]
  IC50: 7.71 µM (active)
[11]
  IC50: 52.4 µM (inactive)
[12]
  IC50: > 66 µM (inactive)
[13]
  IC50: 1.8 µM (not active)
[14]
  EC50: 3.57 µM (active)
[15]
  IC50: 10.5 µM (active)
